Assay results taken from US8119655B2, “Kinase inhibitors” (Takeda Pharmaceutical Company Limited, priority 2005, dated 2012).

Target: T1, AIK (Homo sapiens, UniProt O14965)
T1 sequence (O14965 1-403): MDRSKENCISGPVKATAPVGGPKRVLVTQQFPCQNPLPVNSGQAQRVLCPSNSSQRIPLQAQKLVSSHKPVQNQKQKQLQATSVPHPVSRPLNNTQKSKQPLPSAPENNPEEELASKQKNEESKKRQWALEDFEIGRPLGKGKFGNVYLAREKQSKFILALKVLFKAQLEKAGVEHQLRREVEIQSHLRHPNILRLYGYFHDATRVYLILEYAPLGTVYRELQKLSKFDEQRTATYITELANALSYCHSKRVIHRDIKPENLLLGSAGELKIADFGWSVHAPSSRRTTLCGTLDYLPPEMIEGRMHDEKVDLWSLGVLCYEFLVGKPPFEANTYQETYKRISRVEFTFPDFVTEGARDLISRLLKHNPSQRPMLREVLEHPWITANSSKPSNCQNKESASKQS
Assay: Determination of inhibition of AIK by direct fluorescence polarization (IMAP)
Type: biochemical
Details: FP assay, 2.5 μM ATP, 2.5 nM AIK; read-out: IC50 of Exemplified Compounds Against AIK
Experimental: The inhibitory properties of compounds relative to AIK may be determined by the Direct Fluorescence Polarization detection method (FP) using a Greiner small volume black 384-well-plate format under the following reaction conditions: 50 mM Hepes pH 7.3, 10 mM MgCl2, 10 mM NaCl, 1 mM DTT, 0.01% Brij35, 100 nM Fluorescein-LRRASLG peptide (provided by SYNPEP), 5% DMSO, 2.5 μM ATP. Detection of the reaction product is performed by addition of IMAP binding reagent (Molecular Devices). Reaction product may be determined quantitatively by FP using an Analyst HT plate reader (Molecular Devices) with an excitation wavelength at 485 nm and emission at 530 nm and using a Fluorescein 505 dichroic mirror.
The assay reaction may be initiated as follows: 2 ul of (3×) 300 nM Fl-Peptide/7.5 uM ATP was added to each well of the plate, followed by the addition of 2 ul of (3×) inhibitor (2.5 fold serial dilutions for 11 data points for each inhibitor) containing 15% DMSO. 2 ul of (3×) 7.5 nM AIK solution may be added to initiate the reaction (final enzyme concentration was 2.5 nM for AIK). The reaction mixture may then be incubated at room temperature for 45 min, and quenched and developed by addition of 20 ul of 1 to 400 diluted IMAP binding reagent in 1× proprietary IMAP binding buffer. Fluorescence polarization readings of the resulting reaction mixtures may be measured after a 60-minute incubation at room temperature.
IC50 values may be calculated by non-linear curve fitting of the compound concentrations and fluorescent polarization values to the standard IC50 equation.

| SMILES | IC50 [nM] |
| --- | --- |
| COc1ccc(-c2cccc(NC(C)=O)c2)c2c1[nH]c1ncc(C)cc12 [Compound 161, N-(3-(8-methoxy-3-methyl-9H-pyrido[2,3-b]indol-5-yl)phenyl)acetamide] | 50 to 100 |
| Cc1cnc2[nH]c3c(OCC4CCN(C)CC4)ccc(Cl)c3c2c1 [Compound 175, 5-chloro-3-methyl-8-((1-methylpiperidin-4-yl)methoxy)-9H-pyrido[2,3-b]indole] | 50 to 100 |
| CCS(=O)(=O)c1cccc(-c2ccc(OCC3CCN(C)CC3)c3[nH]c4ncc(Cl)cc4c23)c1 [Compound 199, 3-chloro-5-(3-(ethylsulfonyl)phenyl)-8-((1-methylpiperidin-4-yl)methoxy)-9H-pyrido[2,3-b]indole] | 20 to 50 |
| CCS(=O)(=O)c1cccc(-c2cc(C(=O)NCCN(C)C)c(C)c3[nH]c4ncc(C)cc4c23)c1 [Compound 87, N-(2-(dimethylamino)ethyl)-5-(3-(ethylsulfonyl)phenyl)-3,8-dimethyl-9H-pyrido[2,3-b]indole-7-carboxamide] | 20 to 50 |
| CCS(=O)(=O)c1cccc(-c2cnc(NCCN(C)C)c3[nH]c4ncc(C)cc4c23)c1 [Compound 41, N′-[5-(3-Ethanesulfonyl-phenyl)-3-methyl-9H-dipyrido[2,3-b;4′,3′-d]pyrrol-8-yl]-N,N-dimethyl-ethane-1,2-diamine] | 50 to 100 |
| CCS(=O)(=O)c1cccc(-c2cc(NC(=O)CCN(C)C)c(OC)c3[nH]c4ncc(C)cc4c23)c1 [Compound 240, 3-(dimethylamino)-N-(5-(3-(ethylsulfonyl)phenyl)-8-methoxy-3-methyl-9H-pyrido[2,3-b]indol-7-yl)propanamide] | 20 to 50 |
| CCS(=O)(=O)c1cccc(-c2ccc(C)c3[nH]c4ncccc4c23)c1 [Compound 17, 5-(3-(ethylsulfonyl)phenyl)-8-methyl-9H-pyrido[2,3-b]indole] | 20 to 50 |
| CNS(=O)(=O)c1cccc(-c2ccc(C)c3[nH]c4ncc(C)cc4c23)c1 [Compound 15, 3-(3,8-dimethyl-9H-pyrido[2,3-b]indol-5-yl)-N-methylbenzenesulfonamide] | < 20 |
| CCS(=O)(=O)c1cccc(-c2ccc(OCC3CCN(C)CC3)c(I)c2)c1 [Compound 197, 4-((3′-(ethylsulfonyl)-3-iodobiphenyl-4-yloxy)methyl)-1-methylpiperidine] | < 20 |
| Cc1cnc2[nH]c3c(C)c(C(=O)NCCN(C)C)cc(Cl)c3c2c1 [Compound 120, 5-chloro-N-(2-(dimethylamino)ethyl)-3,8-dimethyl-9H-pyrido[2,3-b]indole-7-carboxamide] | > 100 |
| CCS(=O)(=O)c1cccc(-c2cnc(C#N)c3[nH]c4ncc(C)cc4c23)c1 [Compound 48, 5-(3-Ethanesulfonyl-phenyl)-3-methyl-9H-dipyrido[2,3-b;4′,3′-d]pyrrole-8-carbonitrile] | > 100 |
| Cc1cnc2[nH]c3c(C)c(C(=O)NCCN(C)C)cc(-c4cccc(NC(=O)C5CC5)c4)c3c2c1 [Compound 111, 5-(3-(cyclopropanecarboxamido)phenyl)-N-(2-(dimethylamino)ethyl)-3,8-dimethyl-9H-pyrido[2,3-b]indole-7-carboxamide] | 20 to 50 |
| CCOc1ncc(-c2cccc(S(=O)(=O)CC)c2)c2c1[nH]c1ncc(C)cc12 [Compound 50, 5-(3-Ethanesulfonyl-phenyl)-8-ethoxy-3-methyl-9H-dipyrido[2,3-b;4′,3′-d]pyrrole] | < 20 |

The next lines start with the values.

| IC50 [nM] | SMILES |
| --- | --- |
| < 20 | Cc1cnc(Nc2cc(Cl)ccc2OCC2CCN(C)CC2)c(Br)c1 [Compound 174, 3-bromo-N-(5-chloro-2-((1-methylpiperidin-4-yl)methoxy)phenyl)-5-methylpyridin-2-amine] |
| < 20 | CCS(=O)(=O)c1cccc(-c2cc(C(=O)NCCOCCO)c(C)c3[nH]c4ncc(C)cc4c23)c1 [Compound 110] |
| < 20 | CCS(=O)(=O)c1cccc(-c2ccc(OC)c3[nH]c4ncc(Cl)cc4c23)c1 [Compound 217] |
| < 20 | CCS(=O)(=O)c1cccc(-c2cnc(OCC3CCN(C)CC3)c3[nH]c4ncc(C)cc4c23)c1 [Compound 53, 5-(3-Ethanesulfonyl-phenyl)-3-methyl-8-(1-methyl-piperidin-4-ylmethoxy)-9H-dipyrido[2,3-b;4′,3′-d]pyrrole] |
| < 20 | COc1ccc(Cl)cc1Nc1ncc(C)cc1Br [Compound 154, 3-bromo-N-(5-chloro-2-methoxyphenyl)-5-methylpyridin-amine] |
| < 20 | CCS(=O)(=O)c1cccc(-c2cc(F)c(OCCN(C)C)c3[nH]c4ncc(C)cc4c23)c1 [Compound 203, 2-(5-(3-(ethylsulfonyl)phenyl)-7-fluoro-3-methyl-9H-pyrido[2,3-b]indol-8-yloxy)-N,N-dimethylethanamine] |
